Data on one substance can be found in US20100239556A1, “PROMOTING ECM PRODUCTION BY FIBROBLAST CELLS AND/OR PROMOTING MIGRATION OF FIBROBLAST CELLS IN A BIOLOGICAL SYSTEM” (TGR BioScience Pty Ltd., priority 2006, published 2010).

Assay [1] relates to HFF cells. Description: Fibroblast infiltration into INTEGRA scaffold (SMA immunohistochemistry). The note with it: 6 days. Format: cell-based, human. The source says:
INTEGRA® was cut into lcm x lcm pieces using a sterile scalpel, the pieces transferred to a petri dish using sterile forceps and washed four times each with PBS followed by serum-free DMEM, to remove the alcohol storage medium and to equilibrate the porous scaffold for exposure to cells. After the last wash, the INTEGRA® pieces were transferred to the wells of a 12 well tissue culture plate (collagen layer facing up) immersed in media containing proteins having peroxidase activity. This “pre-treatment” of the INTEGRA® with proteins having peroxidase activity was performed for up to 16 hours at 37° C. in a CO2 incubator. […]
Additional experiments were performed as described above using HFF cells and varying the period of application of the proteins having peroxidase activity to include a “pre-treatment” application only (ie INTEGRA® incubated with SBP 25 μg/ml for up to 16 hours prior to the addition of cells), a “pre-treatment” and “post-treatment” application (ie INTEGRA® pre-treated with SBP and SBP added to the culture media once the INTEGRA had been seeded with cells) and a “post-treatment” application only (ie SBP added to the culture media once the INTEGRA® had been seeded with cells). The INTEGRA® was harvested after 6 days in culture and the number of SMA-positive fibroblast cells counted in five representative fields of view of sections from each condition.

Assay [2] has as its system HFF cells. Description: ECM production within INTEGRA scaffold (collagen I immunohistochemistry). In kind it is cell-based, human. The settings on record: SBP 25 μg/ml pre-, pre+post- or post-treatment. From the text: INTEGRA® was cut into lcm x lcm pieces using a sterile scalpel, the pieces transferred to a petri dish using sterile forceps and washed four times each with PBS followed by serum-free DMEM, to remove the alcohol storage medium and to equilibrate the porous scaffold for exposure to cells. After the last wash, the INTEGRA® pieces were transferred to the wells of a 12 well tissue culture plate (collagen layer facing up) immersed in media containing proteins having peroxidase activity. This “pre-treatment” of the INTEGRA® with proteins having peroxidase activity was performed for up to 16 hours at 37° C. in a CO2 incubator. After the “pre-incubation” period, the media was replaced with fresh DMEM supplemented with 10% FBS (ie normal growth media as the control) containing 5×10^5 human fibroblast cells plus or minus proteins having peroxidase activity. After allowing 24 hours for the fibroblast cells to attach to the collagen matrix of the INTEGRA® scaffold, the INTEGRA® pieces were transferred to fresh 12 well plates to ensure any cells not attached to the matrix surface were removed. Fresh media containing proteins with peroxidase activity were added to the wells and the INTEGRA® pieces incubated for up to 14 days (“post-treatment” period) with the media changed every 7 days as necessary. At the end of the experiment the INTEGRA® pieces were harvested and fixed in 10% buffered formaldehyde before they were processed, embedded in paraffin wax, cut in cross-section and placed onto microscope slides for histological and immunohistochemical analysis.
To confirm proteins having peroxidase activity promote the generation of a three-dimensional human tissue by stimulating the production of collagen and other ECM components to fill the interstices of a three-dimensional framework or scaffold, INTEGRA® pieces collected from the experiments described in Example 3 were analysed for the production of Collagen I (as a representative ECM protein) using immunohistochemistry. […]

Take soy bean peroxidase [SBP]: the “number of fibroblast cells infiltrating and populating the INTEGRA” value in the assay with HFF cells [1] (SBP 25 μg/ml pre-, pre+post- or post-treatment, versus 10% FBS control) is “major influence on the number of fibroblast cells infiltrating and populating”. Further, the “penetration of HFF cells into the scaffold” value in the assay with HFF cells [1] (SBP 25 μg/ml, controls limited to about the top third) is “penetrated the full thickness of the scaffold”. Further, the “production and deposition of cell-associated ECM in the scaffold” value in the assay on HFF cells [2] is “as effective at promoting the production and depositon of cell-associated ECM throughout the full thickness of the scaffold”.
